From PubChem BioAssay AID179 (DTP/NCI, 2004)
Calls of active or inactive are those of the source.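 How the source made its calls: active means compounds giving half or more protection of infected cells from virus-caused growth loss, again on retest; inactive means the rest.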 Where a SMILES comes first, the peptide text is derived from it. The star is where a group is joined. Boc = CC(C)(C)OC(=O)*; OSu = O=C1CCC(=O)N1O*

System: CEM cells HIV-1 protection, formazan growth assay
Experiment: NCI AIDS Antiviral Assay
Conditions: for IC50: measured here: growth of uninfected CEM cells
Summary of the method: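 CEM (human) cells, HIV-1 infected vs uninfected, 5-point dosing, formazan growth read-out. Retest threshold 50% protection.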

Row | Structure (SMILES) | EC50 | IC50 | outcome
1 | NC(Cc1ccc(S(=O)(=O)O)cc1)C(=O)NC(Cc1ccc(S(=O)(=O)O)cc1)C(=O)NC(Cc1ccc(S(=O)(=O)O)cc1)C(=O)O (stereo not drawn) | > 200 µM | > 200 µM | –
2 | COc1c2c(cc3ccc(=O)oc13)C(Cl)C(Cl)O2 (stereo not drawn) | > 77.6 µM | 21.9 µM | –
3 | CN(C)CCCNC(=O)c1nc(NC(=O)c2nc(NC(=O)c3nc(NC(=O)/C=C/C(=O)Nc4cn(C)c(C(=O)Nc5cn(C)c(C(=O)Nc6cn(C)c(C(=O)NCCCN(C)C)n6)n5)n4)cn3C)cn2C)cn1C | > 50.1 µM | > 50.1 µM | –
4 | COC(=O)N[C@H](C(=O)O)C(C)O[Si](C)(C)C(C)(C)C (stereo partly drawn) | > 851 µM | > 851 µM | –
5 | Clc1cccc(Cl)c1C1SCc2nc3ncccc3n21 (stereo not drawn) | 32.4 µM | 105 µM | –
6 | O=C1CC2C=C(S(=O)(=O)c3ccccc3)C1N(Cc1ccccc1)C2=O (stereo not drawn) | – | – | inactive
7 | CCn1c(=O)c2ncnnc2n(CC)c1=O | > 200 µM | > 200 µM | –
8 | Cc1ccc(S(=O)(=O)Nn2c(-c3ccccc3)c(C#N)c(-c3ccc(Cl)cc3)c(C#N)c2=O)cc1 | > 200 µM | 38.9 µM | –
9 | CC(=O)O[C@H]1CCc2c(cc(N)c3c2C(=O)C[C@]2(C)C([C@H](C)CCCC(C)C)CCC32C)C1(C)C (stereo partly drawn) | > 200 µM | > 200 µM | –
10 | CCC(=O)C1(c2cccc(OC)c2)CCN(C)CC1 | > 832 µM | 457 µM | –
11 | Cc1cc(Br)ccc1Nc1nc(N)nc(N)c1N=O | > 200 µM | 51.3 µM | –
12 | N#CC(c1ccccc1)N(CCCCCCN(C(=O)c1ccccc1)C(C#N)c1ccccc1)C(=O)c1ccccc1 (stereo not drawn) | > 200 µM | 61.7 µM | –
13 | CC(C)=CCNc1ncnc2c1ncn2CCC(=O)O | > 200 µM | > 200 µM | –
14 | CC(C)[Si]1(C(C)C)OCC2OC(n3c(C(=O)c4ccccc4)cc(=O)[nH]c3=O)CC2O[Si](C(C)C)(C(C)C)O1 (stereo not drawn) | > 200 µM | 9.12 µM | –
15 | CCC1CC2CN3CCc4c([nH]c5ccc(OC)cc45)C(COC(=O)c4ccc(OC)c(OC)c4)(C2)C13 (stereo not drawn) | – | – | inactive
16 | O=C(OC[C@]12OC1C=C[C@H](OC(=O)c1ccccc1)C2O)c1ccccc1 (stereo partly drawn) | > 24.5 µM | 23.4 µM | –
17 | COC(=O)C1CCC(=O)N1CN(C(C)=O)c1ccccc1 (stereo not drawn) | > 200 µM | > 200 µM | –
18 | Cc1cccc(C)c1NC(=S)/N=C\c1c(O)[nH]c(=O)[nH]c1=O | > 200 µM | > 200 µM | –
19 | CCCCC1(O)CC2CC1C(C)C2(C)C (stereo not drawn) | > 200 µM | > 200 µM | –
20 | Oc1ccc2ccccc2c1C1=NNC(c2ccc(Cl)cc2)C1 (stereo not drawn) | > 200 µM | 40.7 µM | –
21 | CCN(CC)CCCC(C)Nc1c2ccc(Cl)cc2nc2c(Cl)cc(Cl)cc12 (stereo not drawn) | > 200 µM | 7.94 µM | –

Row | Structure (SMILES) | EC50 | IC50 | outcome
22 | CC1(C)CC(=O)C2=C(C1)NC(SCC(=O)O)=C(C#N)C2c1ccc(Br)cc1 (stereo not drawn) | > 200 µM | 178 µM | –
23 | CC12CC(=O)NN=C1c1ccccc1C2 (stereo not drawn) | – | – | inactive
24 | O=c1c(NCc2ccccc2)c(C2(c3ccccc3F)SCCCS2)c1=O | > 200 µM | 151 µM | –
25 | CCOC(=O)c1cnc2oc(-c3ccc(OC)cc3)nn2c1=O | – | – | inactive
26 | CC1CN1c1c(C(=O)/C=C/c2ccc(F)cc2)c(-c2ccccc2)nn(C)c1=O (stereo not drawn) | > 120 µM | 11 µM | –
27 | C#CCN(N=O)C(=O)NC(CCCNC(=O)OCc1ccccc1)C(=O)OCc1ccccc1 (stereo not drawn) | > 28.8 µM | > 28.8 µM | –
28 | Cc1cc2c(=O)c3ccccc3[nH]c2c(C(N)=O)c1C | – | – | inactive
29 | O=C1C=CC(=O)c2c(-c3ccccc3[N+](=O)[O-])cc(Cl)nc21 | – | – | inactive
30 | CCCCCCCCCCCC(=O)OCCOCCOCCOCCOCCOCCOCCOCCOCCO | > 200 µM | 145 µM | –
31 | COc1cc(OC)c2c(O)c(S(=O)(=O)c3ccc(C)cc3)c(=O)oc2c1 | > 200 µM | > 200 µM | –
32 | C=C(Br)C[N+](CC)(CC)CC | > 200 µM | > 200 µM | –
33 | O=C(/C=C/c1ccc(Cl)c(Cl)c1)c1ccccc1Cl | > 2.4 µM | > 2.4 µM | –
34 | CCN(CC)C(=O)N[C@@H](CC(C)C)C(=O)NC | > 200 µM | > 200 µM | –
35 | CCC/C(Cl)=N\OC(=O)Nc1ccc(F)cc1 | > 20 µM | 2.82 µM | –
36 | O=C(CCc1ccccc1CO)NCCc1ccccc1 | > 200 µM | > 200 µM | –
37 | COc1cc2c(c(OC)c1OC)[C@@H]1CCCCC[C@@H]1CCC2=O | > 251 µM | 112 µM | –
38 | Cc1ccc2c(c1C)C(=O)/C(=C/c1ccccc1C(=O)O)C2 | 38 µM | 93.3 µM | –
39 | O=C1NC(=O)C(C(=O)Nc2ccc(Cl)cc2)c2ccccc21 (stereo not drawn) | > 200 µM | 129 µM | –
40 | CCCCCC(/C=C/C1CCC(=O)C1)OCOCCOC (stereo not drawn) | > 200 µM | 18.2 µM | –
41 | O=[N+]([O-])c1cccc2nc3ccccc3c(NCCCN3CCOCC3)c12 | > 0.2 µM | 0.0631 µM | –
42 | CC(C)(C)OC(=O)NC(Cc1ccc(O)cc1)C(=O)NC(CCCCN)C(=O)NC(Cc1ccc(O)cc1)C(=O)NC(CCCCN)C(=O)ON1C(=O)CCC1=O (stereo not drawn) (Boc-YKYK-OSu; configuration not given here) | > 100 µM | > 100 µM | –

Row | Structure (SMILES) | EC50 | IC50 | outcome
43 | C[C@]12CCC[C@H](O)[C@H]1C[C@H](CO)CC2 | – | – | inactive
44 | Nc1ccc2c3c1cccc3c(=O)n1c3ccc(Cc4ccc5c(c4)nc4c6ccc(N)c7cccc(c(=O)n54)c76)cc3nc21 | > 100 µM | – | –
45 | O=[N+]([O-])c1cccnc1NCC1(CO)CC(Cc2ccccc2)C1 (stereo not drawn) | > 200 µM | 110 µM | –
46 | COc1ccccc1NC(=O)C(CC(C(=O)Nc1ccccc1OC)/C(C)=N/Nc1ccc([N+](=O)[O-])cc1[N+](=O)[O-])/C(C)=N/Nc1ccc([N+](=O)[O-])cc1[N+](=O)[O-] (stereo not drawn) | > 9.12 µM | > 9.12 µM | –
47 | Cc1nc(Nc2ccc(Cl)cc2)sc1C(=O)NNc1ccc([N+](=O)[O-])cc1[N+](=O)[O-] | > 39.8 µM | 25.1 µM | –
48 | CC[N+]1(C)CCC(O)(c2ccc(Cl)c(Cl)c2)C(C(=O)c2ccc(Cl)c(Cl)c2)C1 (stereo not drawn) | > 200 µM | 22.4 µM | –
49 | CCC[CH2][Sn]1([CH2]CCC)[O]C(=O)C2C(C(=O)[O]1)C1(Cl)C(Cl)=C(Cl)C2(Cl)C1(Cl)Cl (stereo not drawn) | > 200 µM | 0.182 µM | –
50 | C=C1CC(Cn2cc(C)c(=O)[nH]c2=O)(c2ccc(-c3ccccc3)cc2)OC1=O (stereo not drawn) | > 20 µM | 0.288 µM | –
51 | CNNC1=NS(=O)(=O)c2cc(C#N)c(Cl)cc2S1 | – | – | inactive
52 | N#CC12C3C4CC5C6C4C1C6C(O)(C53)N2Cc1ccccc1 (stereo not drawn) | > 447 µM | 257 µM | –
53 | CCOC(=O)CC(=O)N(c1ccc(OC)cc1)C(C(=O)OC)c1ccccc1 (stereo not drawn) | > 200 µM | 166 µM | –
54 | Cc1ccc(C)c(NC(=O)CC/C(=N\NC(=O)C(N)=O)C(C)C(=O)c2ccc(O)cc2)c1 (stereo not drawn) | > 155 µM | > 155 µM | –
55 | Cc1cn(C2OC(CO[Si](C)(C)C(C)(C)C)C(N(C)O[Si](C)(C)C(C)(C)C)C2[Se]c2ccccc2)c(=O)[nH]c1=O (stereo not drawn) | > 200 µM | 8.32 µM | –
56 | Cc1[nH]c2ccccc2c1CC/C(=N\Nc1ccccc1)c1ccccc1 | – | – | inactive
57 | COc1ccc(C2S/C(=C\c3ccc(O)cc3)C(=O)N2NC(=O)Cc2ccccc2)cc1 (stereo not drawn) | > 112 µM | > 112 µM | –
58 | NC(CCCCCP(=O)(O)O)C(=O)O (stereo not drawn) | > 200 µM | > 200 µM | –
59 | O=C(CSc1nc(-c2ccccc2)c(-c2ccccc2)[nH]1)NNC(=S)Nc1ccccc1 | > 56.2 µM | 29.5 µM | –
60 | CCOC(=O)C1CC(O)C(=O)N1C (stereo not drawn) | – | – | inactive
61 | O=C1OCC(C2CCCCC2)C(Br)=C1Br (stereo not drawn) | > 200 µM | 56.2 µM | –
62 | O=S(=O)(c1ccc(Cl)cc1)S(=O)(=O)c1ccc(Cl)cc1 | 10.7 µM | 26.9 µM | –
63 | COc1cc(-c2oc(C=Nc3ccccc3)c([N+](=O)[O-])c2-c2ccc(O)c(OC)c2)ccc1O | > 200 µM | 7.59 µM | –

Row | Structure (SMILES) | EC50 | IC50 | outcome
64 | c1ccc2c(c1)ncn1nnnc21 | > 955 µM | 501 µM | –
65 | Cc1cc2c(cc1Cl)SC(NNC(=O)c1ccco1)=NS2(=O)=O | > 200 µM | > 200 µM | –
66 | Nc1c(N=Nc2ccc(-c3ccc(N=Nc4c(S(=O)(=O)O)cc5cc(S(=O)(=O)O)c(N=Nc6ccccc6)c(O)c5c4N)cc3)cc2)ccc2c(S(=O)(=O)O)cccc12 | – | – | inactive
67 | COC1/C=C/OC2(C)Oc3c(C)c(O)c4c(O)c(c(/C=N/N(C)c5ncnc6c5ncn6C5OC(CO)C(O)C5O)c(O)c4c3C2=O)NC(=O)C(C)=C/C=C/C(C)C(O)C(C)C(O)C(C)C(OC(C)=O)C1C (stereo not drawn) | > 200 µM | 110 µM | –
68 | Cc1cccc2c(N)c3cccc(C(=O)NCC[N+](C)(C)Cc4ccc([N+](=O)[O-])s4)c3nc12 | > 2 µM | 0.251 µM | –
69 | CCOc1ccc(-c2coc3cc(C)c(OCC)c(C)c3c2=O)cc1 | > 200 µM | > 200 µM | –
70 | Cn1cc(N)cc1C(=O)Nc1cc(C(=O)Nc2ccc3cc(S(=O)(=O)O)cc(S(=O)(=O)O)c3c2)n(C)n1 | 18.2 µM | > 100 µM | –
71 | Nc1ccc2c(=S)c3ccccc3[nH]c2c1 | – | – | inactive
72 | NC(=O)c1cc([N+](=O)[O-])cc([N+](=O)[O-])c1 | > 200 µM | 40.7 µM | –
73 | C=C1SC(=Nc2cccc(OC)c2)N(c2nc(Cl)nc(Cl)n2)C1(C)C | > 112 µM | 20 µM | –
74 | C=CCCCN1C(=O)CCC1=O | – | – | inactive
75 | O=C(O)CCc1coc2ccc(O)cc12 | – | – | inactive
76 | C/C(=C\CCC1=CC(=O)OC1)CC[C@@H]1[C@H]2C(=O)CC(C)[C@@]3(C)CC[C@]1(C)[C@@]23C (stereo partly drawn) | > 200 µM | 34.7 µM | –
77 | CN(C)C(=O)NC(=S)N(C)C | – | – | inactive
78 | O=C(/C=C/c1ccc(O)c(O)c1)c1cc(O)cc(O)c1 | > 200 µM | 15.1 µM | –
79 | Cc1cn(C2CC(O[Si](C)(C)C(C)(C)C)C(CN(OC(=O)Oc3ccccc3)C(=O)Oc3ccccc3)O2)c(=O)[nH]c1=O (stereo not drawn) | > 200 µM | 10.2 µM | –
80 | CC(NC(=O)Cc1ccccc1)NC(=O)C(C)C(=O)NCc1ccccc1 (stereo not drawn) | – | – | inactive
81 | CC(C)CCCC(C)N (stereo not drawn) | > 200 µM | > 200 µM | –
82 | CN1C(=O)CC(=O)N(c2ccccc2)c2cc(Cl)ccc21 | – | – | inactive
83 | Cc1cc(C)c(-n2c(-c3ccc(Br)cc3)cs/c2=N\N=C2C=C(C(C)(C)C)C(=O)C(C(C)(C)C)=C2)c(C)c1 | > 2.45 µM | > 2.45 µM | –
